Patent publication US9326996B2, “Use of xenon as neuroprotectant in a neonatal subject” (IMPERIAL INNOVATIONS LIMITED, priority 2004, dated 2016)
Read-outs that look alike come from different tables or passages of the source.

Columns and labels:
[1] = test system: activated caspase-3 in cortex; test: Cortical activated caspase-3 immunohistochemistry after anesthetic gas exposure
Experimental: (§1) 7 day old Sprague-Dawley rat pups were placed in individual wells of a custom-built anesthetic chamber, and randomised to groups A-F to receive one of 6 gas combinations for 6 hours. Previous work has established that NMDA receptor antagonists have their maximal neurodegenerative affect 7 days after birth (Ikonomidou et al., 1999).
(§2) Group B received 75% nitrous oxide and 25% oxygen as delivered by a calibrated anesthetic machine, whereas group C received 75% xenon along with 25% oxygen through a customised anesthetic machine modified for xenon delivery (Ohmeda, modified by Air Products, Surrey, UK). Group D were exposed to 25% oxygen along with 0.75% isoflurane. The remaining 2 groups were exposed to combinations of gases—namely 25% oxygen+75% nitrous oxide+0.75% isoflurane (group E) and 25% oxygen+60% xenon+15% nitrogen+0.75% isoflurane (group F). The high cost of xenon precludes its use in an open-circuit, consequently group C and group F received gases using a closed-circuit system, whereas gases for all other groups were delivered in a high-flow open-circuit.
(§3) Rats destined for immunohistochemistry were sacrificed with 100 mg kg^−1 sodium pentobarbital IP immediately post-anesthesia, whereas those rats for DeOlmos silver staining were allowed to recover for 18 hrs before undergoing the same procedure. A thoracotomy was performed, and the aorta cannulated via a needle inserted into the apex of the heart. The pup was then perfused with 10 ml of 1% heparin solution, with the excess solution leaving through an incision in the right atrium. To fix the tissues, 20 ml of 4% paraformaldehyde in 0.1M phosphate buffer was injected by the same transcardial route. The whole brain was then removed and allowed to fix in paraformaldehyde perfusate and refrigerated at 4° C. 24 hours later, the brains were transferred to a solution of 30% sucrose with phosphate buffer and 1% sodium azide, and were kept refrigerated until the brains sank (approximately 48 hours).
(§4) Once processed, a block was cut to safely include the area of interest—a coronal section −3.6 mm from the bregma (FIG. 1B). The blocks were then embedded and frozen into O.C.T. solution. The block was then cut coronally into approximately 120 slices, each 30 μm thick, with a cryostat (Bright Instrument Company Ltd., Huntingdon, UK). The cut sections were transferred to a 6 well plate containing phosphate buffered saline (PBS).
(§5) A random well from each cut block, each containing around 20 representative slices of the total block, was transferred to a marked silk-bottomed well using a 3 ml Pasteur pipette. The sections were then washed in 5 ml of PBS for 5 min on a shaker set at 75 rpm. This washing procedure was repeated twice more, replacing the PBS each time. To quench the sections, they were incubated at room temperature on a shaker for 30 min in a solution comprising 35 ml methanol, 15 ml of PBS and 500 μl of stock 30% H2O2.
The quenching solution was then removed, and the sections washed three times in PBS. Sections were blocked for 60 min at room temperature with 50 ml of PBST (PBS containing 0.5% Triton-X (Promega Corporation, Madison, Wis.)), and 1500 μl of normal goat serum (NGS) (Vector Laboratories Inc., Burlingame, Calif.). For incubation with the primary antibody, the sections were kept overnight at 4° C. on a shaker set at 50 rpm in a solution made up of […] rabbit anti-cleaved caspase-3 antibody (New England Biolabs, Hertfordshire, UK), 50 ml of PBST and 500 μl of NGS. […]

[2] = test system: activated caspase-3 in hippocampus; test: Hippocampal activated caspase-3 immunohistochemistry after anesthetic gas exposure
Experimental: as §1, §2, §3, §4
as §5, with “To quench the sections, they were incubated at room temperature on a shaker for 30 min in a solution comprising 35 ml methanol, 15 ml of PBS and 500 μl of stock 30% H2O2.” left out

[3] = test system: neuronal glial co-culture; test: LDH release after preconditioning and oxygen glucose deprivation, neuronal glial co-culture; format: cell-based, mouse; conditions: for LDH release following oxygen glucose deprivation: 2 h preconditioning
Experimental: The pups were anaesthetised with isoflurane and then decapitated with the heads placed immediately into 4° C. HSG solution, an isotonic, high sucrose glucose solution made primarily from Hank's balanced salt solution (HBSS, GibroBRL) enhanced with NaHCO3 (0.04 M), sucrose (0.2 M) and D-Glucose (0.3 M) also containing antibiotic-anti-mycotic solution (AAS, GibroBRL). […] HSG solution.
The brain tissue was then immersed in 0.25% trypsin and was placed in a shaking air chamber for 50 minutes at 37° C. filled with 5% CO2 and 95% room air. DNase was then added to the mixture and placed back into the shaking air chamber for a further 15 minutes. The mixture was then centrifuged at 1600 rpm for 10 minutes at 4° C. and the supernatant was carefully discarded. The cells were then resuspended and then plated at a density of 6.25×10^4 cells/cm^2 on 24-multiwell plates (Costar, Cambridge, Mass.) and cultured in a medium consisting of Eagle's minimum essential medium augmented with 20 mM glucose, 26 mM NaHCO3, 10% foetal bovine serum, 10% heat-inactivated horse serum, AAS (Gibco, Paisley, UK), 2 mM glutamine (Sigma, Poole, UK) and 10 ng/ml murine epidermal growth factor (EGF) (GibcoBRL). Glial cells reached confluence about one week after plating.
Using a similar procedure cortical neuronal cells were obtained from fetal BALB/c mice at 14-16 days of gestation and plated at a density of 1.25×10^5 cells per cm^2 on the confluent monolayer of glial cells derived from the corresponding genetic strain. Neuronal cells reached confluence 10 days after plating.
Sevoflurane was delivered using a vaporiser (Datex-Ohmeda).
The amount of neuronal damage was assessed by the amount of LDH released into the culture medium, using a standardised colorimetric enzyme kit (Sigma, Poole, UK). This technique has been previously described (Wilhelm et al 2002). LDH assessment was performed 16 hours after oxygen glucose deprivation (FIG. 8).

[4] = in vivo; cited from earlier work
pure neuronal cultures = test: FACS assessment of necrotic, viable and apoptotic cell populations after preconditioning and oxygen glucose deprivation
Experimental: Neuronal cells were harvested from 19 day old embryonic mice by cesarean section for pregnant BALB/c mice. 6-9 mouse brains were removed from fetal mice and dissected to isolate whole cerebral neocortices devoid of the hippocampus, basal ganglia and meninges. Again throughout the micro dissection process, brain tissues were kept in 4° C. HSG solution. […] The cells were plated at a density of 1.2×10^5 cells, per cm^2 on 24-multiwell plates (Cater, Cambridge, Mass.) and the cultures were maintained at 37° C. in a humidified 5% CO2 environment. Neurobasal Media supplemented with B27, glutamine and AAS was used to resuspend the neuronal cells and as culture medium. For every 10 ml of Neurobasal Media, the following supplements were added: 200 μl B27, 100 μl antibiotic and 25 μl glutamine. Medium replacement for these cells was performed on day 2, 5 and 7 with pre-warmed 37° C. culture medium (Neurobasal Media, B27, Glutamine and AAS). On day 5 after neuronal plating, 100 μl/10 ml cytosine arabinoside (CA hydrochloride, Sigma) was added to the cell cultures to halt non-neuronal cell division. Neuronal cell cultures were ready to use on day 7.
Cells were preconditioned using a purpose built 1.4 liter airtight, temperature controlled gas chambers. The chambers had inlet and outlet valves and an internal electric fan to ensure effective and continuous delivery of gases. Gas flow rate was 100 ml/min, and so chambers were flushed and allowed to equilibrate for 45 minutes before establishing a closed system. Cells were preconditioned for 2 hours inside the closed system with the appropriate gas concentrations using flow meters. Sevoflurane was delivered using a vaporiser (Datex-Ohmeda).
To model ischaemic damage in the brain, neuronal cells were subjected to oxygen glucose deprivation. Twenty four hours after preconditioning cells, cultures were washed twice with HEPES buffer solution (120 mM NaCl, 5.4 mM KCL, 0.8 mM MgCl2, 15 mM glucose and 20 mM HEPES, titrated to pH 7.4 using 1M NaOH). […] The cells were exposed to this anoxic environment for 75 minutes. Oxygen glucose deprivation was terminated by removing the cultures from the gas chamber and changing the media; cultures destined for lactate dehydrogenase (LDH) assay were washed once and replaced with Eagle's minimal essential medium enhanced with 25 mM glucose and 38 mM NaHCO3, whereas pure neuronal cultures for FACS were washed once and replaced with Neurobasal Media supplemented with B27, glutamine and AAS.
Twenty fours hours after oxygen glucose deprivation, cells were stained for FACS analysis. The culture medium was removed and washed twice with HEPES buffer solution. […] Cells were then washed twice with 1×BB, and then 0.8 μg/ml propidium iodide (Sigma-Aldrich, Poole, UK) in 1% fetal bovine serum (FBS) in phosphate buffer solution (PBS) was added and left to incubate on ice for 5 minutes. […] 800 μl 1% FBS in PBS was then added to stop the reaction, cells were removed and added to tubes for centrifugation at 1200 g for 10 minutes. The supernatant was discarded and the cells were re-suspended with 300 μl 1% FBS in PBS. Steps, if possible, were performed on ice to reduce the amount of neuronal death.
A FACSCalibur (Becton Dickinson, Sunnyvale, Calif.) with a single argon laser was used for flow cytometric analysis. […] At least 10,000 cells per sample were analysed.

[5] = Sprague-Dawley, rat, in vivo, 6 h
[6] = 7 day old Sprague-Dawley rats, 6 h exposure with 25% oxygen, 75% N2O, 75% xenon, 0.75% isoflurane, 75% N2O+0.75% isoflurane, 60% xenon+0.75% isoflurane, air control 19.3±6.4
[7] = 12.5% xenon, 0.67% sevoflurane or their combination as preconditioning, then oxygen glucose deprivation

In the case of `[N-]=[N+]=O` [N2O, nitrous oxide], the “number of caspase-3 positive cells in cortex (mean±SD)” value (from here on “number … in cortex (mean±SD)”) [1, 5] was 22.5±5.9 and the “number of caspase-3 positive cells in hippocampus (mean±SD)” value (“number … in hippocampus (mean±SD)” for short) [2, 5] was 3.7±1.4.

In the case of `FC(F)OC(Cl)C(F)(F)F` (centres unmarked) [isoflurane], the “increase in the level of apoptosis in the cortex vs controls” value ([1]; 0.75% isoflurane or 75% N2O+0.75% isoflurane, neonatal rats) was 4 fold, the “number … in cortex (mean±SD)” value [1, 6] was 76.5±11.4 and the “increase in the level of apoptosis in the hippocampus vs controls” value [2, 5] was 4 fold. The “number … in hippocampus (mean±SD)” value [2, 5] was 22.1±9.6.

In the case of `FCOC(C(F)(F)F)C(F)(F)F` [sevoflurane], the “degenerating neurons, positive cells” value ([1]; 1.5% sevoflurane alone, control value 20.0±2, brain region not stated) was 42±2 positive cells, the “concentration producing a significant reduction in LDH release” value ([3]; 2 h preconditioning followed by OGD) was “greater than 1.9%” and the “LDH release following oxygen glucose deprivation” value ([3]; sevoflurane at 0.67%, ineffective) was 97+/−5 % of controls. For the same compound, the “LDH release following oxygen glucose deprivation” value ([3]; sevoflurane at 1.3%) was 100+/−11 % of controls, the “LDH release following oxygen glucose deprivation” value ([3]; sevoflurane at 2.7%, p<0.05) was 64+/−6 % of control and the “LDH release following oxygen glucose deprivation” value ([3]; sevoflurane at 3.3%, p<0.001) was 37+/−5 % of controls. The “atmosphere sufficient to maintain anesthesia” value [4] was “about 2.5%”, the apoptotic cell population (pure neuronal cultures; [7]) was 17+/−1% and the viable cell population (pure neuronal cultures; [7]) was 9%. For the same compound, the necrotic cell population (pure neuronal cultures; 12.5% xenon, 0.67% sevoflurane or their combination as preconditioning, then oxygen glucose deprivation, sham 70+/−2%, control 17+/−1%) was 81+/−2%.

For `[Xe]` [xenon], the “number … in cortex (mean±SD)” value [1, 6] was 19.7±9.6, the “number … in hippocampus (mean±SD)” value ([2]; 7 day old Sprague-Dawley rats, 6 h exposure with 25% oxygen, 75% N2O, 75% xenon, 0.75% isoflurane, 75% N2O+0.75% isoflurane, 60% xenon+0.75% isoflurane, controls 5.2±1.8) was 5.0±3.2 and the “LDH release following oxygen glucose deprivation” value ([3]; xenon at 12.5%, not significant) was 83+/−7 % of controls. The “LDH release following oxygen glucose deprivation” value ([3]; xenon at 25%, not significant) was 70+/−11 % of controls, the “LDH release following oxygen glucose deprivation” value ([3]; xenon at 50%, p<0.05) was 55+/−12 % of control values and the “LDH release following oxygen glucose deprivation” value ([3]; xenon at 75%, p<0.05) was 49+/−12 % of control values. For the same compound, the “atmosphere sufficient to induce or maintain anesthesia” value [4] was “about 70%”, the necrotic cell population (pure neuronal cultures) was 75+/−2% and the apoptotic cell population (pure neuronal cultures; [7]) was 9+/−1%. For the same compound, the viable cell population (pure neuronal cultures; [7]) was 9%.
